ChEMBL document CHEMBL2074191, “Electrophysiological characteristics of the proton-coupled peptide transporter PEPT2 cloned from rat brain” (Am J Physiol, 1998)
Values belong to the molecule of their own block, whether it stands above or below them. Residues, ends and D or L forms follow the SMILES beside them.

How the values were obtained:
Type in all cases: functional, cell-based
[1] = molecular target: T1, Solute carrier family 15 member 2 (Rattus norvegicus) (UniProt Q63424); assay: TP_TRANSPORTER: inhibition of Gly-Sar uptake (Gly-Sar: 30 uM, Ala-Glu: 500 uM) in PEPT2-expressing SK-N-SH cells
T1 sequence (whole entry): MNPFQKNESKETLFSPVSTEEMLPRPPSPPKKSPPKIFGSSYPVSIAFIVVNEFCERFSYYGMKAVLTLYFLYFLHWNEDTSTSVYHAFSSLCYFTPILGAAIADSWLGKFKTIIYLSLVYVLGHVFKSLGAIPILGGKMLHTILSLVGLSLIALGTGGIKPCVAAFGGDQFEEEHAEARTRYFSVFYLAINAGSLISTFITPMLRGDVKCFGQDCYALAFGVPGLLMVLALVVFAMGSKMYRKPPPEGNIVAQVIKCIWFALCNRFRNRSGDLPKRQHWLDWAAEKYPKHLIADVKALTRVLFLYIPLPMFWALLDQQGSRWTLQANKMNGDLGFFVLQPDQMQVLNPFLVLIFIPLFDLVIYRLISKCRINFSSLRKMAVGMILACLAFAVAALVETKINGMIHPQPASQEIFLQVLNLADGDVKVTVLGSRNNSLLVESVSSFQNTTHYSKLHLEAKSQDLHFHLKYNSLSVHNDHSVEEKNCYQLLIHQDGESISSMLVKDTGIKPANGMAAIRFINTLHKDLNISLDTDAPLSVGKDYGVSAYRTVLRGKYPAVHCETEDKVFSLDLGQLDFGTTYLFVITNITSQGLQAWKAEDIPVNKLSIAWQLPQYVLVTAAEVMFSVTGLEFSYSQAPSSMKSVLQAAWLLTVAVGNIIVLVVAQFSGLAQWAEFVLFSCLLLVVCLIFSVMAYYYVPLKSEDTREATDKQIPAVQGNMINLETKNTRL

[2] = molecular target: T1, Solute carrier family 15 member 2 (Rattus norvegicus); assay: TP_TRANSPORTER: inhibition of Gly-Sar uptake (Gly-Sar: 30 uM, Ala-Lys: 500 uM) in PEPT2-expressing SK-N-SH cells
[3] = molecular target: T1, Solute carrier family 15 member 2 (Rattus norvegicus); assay: TP_TRANSPORTER: inhibition of Gly-Sar uptake (Gly-Sar: 30 uM, Ala-Val: 500 uM) in PEPT2-expressing SK-N-SH cells
[4] = molecular target: T1, Solute carrier family 15 member 2 (Rattus norvegicus); assay: (§1) TP_TRANSPORTER: uptake in PEPT2-expressing HeLa cells
[5] = molecular target: T2, Solute carrier family 15 member 2 (Rattus norvegicus, UniProt Q63424); assay: TP_TRANSPORTER: inhibition of Gly-Sar uptake (Gly-Sar: 10 uM) in PEPT2-expressing SK-N-SH cells
T2 sequence (Q63424 whole entry): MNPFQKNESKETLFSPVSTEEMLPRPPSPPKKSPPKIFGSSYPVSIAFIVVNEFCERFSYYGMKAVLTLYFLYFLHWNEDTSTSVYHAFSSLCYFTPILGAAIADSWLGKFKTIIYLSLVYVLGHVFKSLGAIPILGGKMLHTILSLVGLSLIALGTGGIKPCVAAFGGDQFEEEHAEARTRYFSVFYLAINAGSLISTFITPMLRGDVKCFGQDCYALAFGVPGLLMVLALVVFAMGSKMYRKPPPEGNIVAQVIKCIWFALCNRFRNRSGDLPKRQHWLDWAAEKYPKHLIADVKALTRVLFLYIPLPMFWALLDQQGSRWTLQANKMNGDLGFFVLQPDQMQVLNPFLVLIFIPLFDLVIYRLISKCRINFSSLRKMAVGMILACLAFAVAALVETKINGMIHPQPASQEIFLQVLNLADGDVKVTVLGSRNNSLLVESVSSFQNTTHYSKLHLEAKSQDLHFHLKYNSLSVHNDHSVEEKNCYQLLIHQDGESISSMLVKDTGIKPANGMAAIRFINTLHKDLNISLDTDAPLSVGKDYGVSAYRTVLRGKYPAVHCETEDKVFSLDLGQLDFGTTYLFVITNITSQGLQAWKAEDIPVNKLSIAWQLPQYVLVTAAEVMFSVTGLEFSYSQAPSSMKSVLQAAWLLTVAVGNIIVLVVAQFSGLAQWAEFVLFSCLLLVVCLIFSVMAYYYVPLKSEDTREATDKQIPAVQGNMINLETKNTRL

[6] = substrate: CN(CC(=O)O)C(=O)CN; assay: as §1

Activity [1]: inhibitor [+]
Molecule: C[C@H](N)C(=O)N[C@@H](CCC(=O)O)C(=O)O (H-Ala-Glu-OH)

Activity [2]: inhibitor [+]
Molecule: C[C@H](N)C(=O)N[C@@H](CCCCN)C(=O)O (H-Ala-Lys-OH)

Activity [3]: inhibitor [+]
Molecule: CC(C)[C@H](NC(=O)[C@H](C)N)C(=O)O (H-Ala-Val-OH)

Activity [4]: substrate [+]
Molecule: NCC(=O)NCC(=O)O (H-Gly-Gly-OH)

Activity [4]: substrate [+]
Molecule: NCC(=O)N[C@@H](Cc1ccccc1)C(=O)O (H-Gly-Phe-OH)

Activity [4]: substrate [+]
Molecule: NCC(=O)N1CCC[C@H]1C(=O)O (H-Gly-Pro-OH)

IC50 [5]: 3 mM
Molecule: CC(=O)N[C@@H](CC(=O)O)C(=O)N[C@@H](CCC(=O)O)C(=O)O [ISOSPAGLUMIC ACID] (Ac-Asp-Glu-OH)

B1: Solute carrier family 15 member 2 (Rattus norvegicus), Q63424 (protein)
chain: MNPFQKNESKETLFSPVSTEEMLPRPPSPPKKSPPKIFGSSYPVSIAFIVVNEFCERFSYYGMKAVLTLYFLYFLHWNEDTSTSVYHAFSSLCYFTPILGAAIADSWLGKFKTIIYLSLVYVLGHVFKSLGAIPILGGKMLHTILSLVGLSLIALGTGGIKPCVAAFGGDQFEEEHAEARTRYFSVFYLAINAGSLISTFITPMLRGDVKCFGQDCYALAFGVPGLLMVLALVVFAMGSKMYRKPPPEGNIVAQVIKCIWFALCNRFRNRSGDLPKRQHWLDWAAEKYPKHLIADVKALTRVLFLYIPLPMFWALLDQQGSRWTLQANKMNGDLGFFVLQPDQMQVLNPFLVLIFIPLFDLVIYRLISKCRINFSSLRKMAVGMILACLAFAVAALVETKINGMIHPQPASQEIFLQVLNLADGDVKVTVLGSRNNSLLVESVSSFQNTTHYSKLHLEAKSQDLHFHLKYNSLSVHNDHSVEEKNCYQLLIHQDGESISSMLVKDTGIKPANGMAAIRFINTLHKDLNISLDTDAPLSVGKDYGVSAYRTVLRGKYPAVHCETEDKVFSLDLGQLDFGTTYLFVITNITSQGLQAWKAEDIPVNKLSIAWQLPQYVLVTAAEVMFSVTGLEFSYSQAPSSMKSVLQAAWLLTVAVGNIIVLVVAQFSGLAQWAEFVLFSCLLLVVCLIFSVMAYYYVPLKSEDTREATDKQIPAVQGNMINLETKNTRL
Km [6]: 35 µM
